In PubChem BioAssay (NCI):
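GI50 = concentration required for 50% inhibition of growth. TGI marks complete inhibition of growth.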

Legend:
Assay in all cases: inhibition of tumour cell growth, NCI panel, 384-well format; in the data active = GI50 below about 0.43 µM; inactive = the rest
MDA-MB-468 breast = tested on: MDA-MB-468 breast
CAKI-1 renal = tested on: CAKI-1 renal
RPMI-8226 leukemia = tested on: RPMI-8226 leukemia
NCI-H23 lung = tested on: NCI-H23 lung
HL-60(TB) leukemia = tested on: HL-60(TB) leukemia

O=c1[nH]cnc2[nH]ncc12
60.9 µM: TGI (RPMI-8226 leukemia)
inactive: GI50 (MDA-MB-468 breast) 85.2 µM | GI50 (CAKI-1 renal) 36.8 µM | GI50 (RPMI-8226 leukemia) 24 µM | GI50 (NCI-H23 lung) 98.4 µM | GI50 (HL-60(TB) leukemia) 74.5 µM
